This note sets out measurements from patent publication US11878966B2, “Substituted 4-benzyl and 4-benzoyl piperidine derivates” (89BIO LTD, priority 2015, dated 2024).

T1 sequence (P49327 whole entry): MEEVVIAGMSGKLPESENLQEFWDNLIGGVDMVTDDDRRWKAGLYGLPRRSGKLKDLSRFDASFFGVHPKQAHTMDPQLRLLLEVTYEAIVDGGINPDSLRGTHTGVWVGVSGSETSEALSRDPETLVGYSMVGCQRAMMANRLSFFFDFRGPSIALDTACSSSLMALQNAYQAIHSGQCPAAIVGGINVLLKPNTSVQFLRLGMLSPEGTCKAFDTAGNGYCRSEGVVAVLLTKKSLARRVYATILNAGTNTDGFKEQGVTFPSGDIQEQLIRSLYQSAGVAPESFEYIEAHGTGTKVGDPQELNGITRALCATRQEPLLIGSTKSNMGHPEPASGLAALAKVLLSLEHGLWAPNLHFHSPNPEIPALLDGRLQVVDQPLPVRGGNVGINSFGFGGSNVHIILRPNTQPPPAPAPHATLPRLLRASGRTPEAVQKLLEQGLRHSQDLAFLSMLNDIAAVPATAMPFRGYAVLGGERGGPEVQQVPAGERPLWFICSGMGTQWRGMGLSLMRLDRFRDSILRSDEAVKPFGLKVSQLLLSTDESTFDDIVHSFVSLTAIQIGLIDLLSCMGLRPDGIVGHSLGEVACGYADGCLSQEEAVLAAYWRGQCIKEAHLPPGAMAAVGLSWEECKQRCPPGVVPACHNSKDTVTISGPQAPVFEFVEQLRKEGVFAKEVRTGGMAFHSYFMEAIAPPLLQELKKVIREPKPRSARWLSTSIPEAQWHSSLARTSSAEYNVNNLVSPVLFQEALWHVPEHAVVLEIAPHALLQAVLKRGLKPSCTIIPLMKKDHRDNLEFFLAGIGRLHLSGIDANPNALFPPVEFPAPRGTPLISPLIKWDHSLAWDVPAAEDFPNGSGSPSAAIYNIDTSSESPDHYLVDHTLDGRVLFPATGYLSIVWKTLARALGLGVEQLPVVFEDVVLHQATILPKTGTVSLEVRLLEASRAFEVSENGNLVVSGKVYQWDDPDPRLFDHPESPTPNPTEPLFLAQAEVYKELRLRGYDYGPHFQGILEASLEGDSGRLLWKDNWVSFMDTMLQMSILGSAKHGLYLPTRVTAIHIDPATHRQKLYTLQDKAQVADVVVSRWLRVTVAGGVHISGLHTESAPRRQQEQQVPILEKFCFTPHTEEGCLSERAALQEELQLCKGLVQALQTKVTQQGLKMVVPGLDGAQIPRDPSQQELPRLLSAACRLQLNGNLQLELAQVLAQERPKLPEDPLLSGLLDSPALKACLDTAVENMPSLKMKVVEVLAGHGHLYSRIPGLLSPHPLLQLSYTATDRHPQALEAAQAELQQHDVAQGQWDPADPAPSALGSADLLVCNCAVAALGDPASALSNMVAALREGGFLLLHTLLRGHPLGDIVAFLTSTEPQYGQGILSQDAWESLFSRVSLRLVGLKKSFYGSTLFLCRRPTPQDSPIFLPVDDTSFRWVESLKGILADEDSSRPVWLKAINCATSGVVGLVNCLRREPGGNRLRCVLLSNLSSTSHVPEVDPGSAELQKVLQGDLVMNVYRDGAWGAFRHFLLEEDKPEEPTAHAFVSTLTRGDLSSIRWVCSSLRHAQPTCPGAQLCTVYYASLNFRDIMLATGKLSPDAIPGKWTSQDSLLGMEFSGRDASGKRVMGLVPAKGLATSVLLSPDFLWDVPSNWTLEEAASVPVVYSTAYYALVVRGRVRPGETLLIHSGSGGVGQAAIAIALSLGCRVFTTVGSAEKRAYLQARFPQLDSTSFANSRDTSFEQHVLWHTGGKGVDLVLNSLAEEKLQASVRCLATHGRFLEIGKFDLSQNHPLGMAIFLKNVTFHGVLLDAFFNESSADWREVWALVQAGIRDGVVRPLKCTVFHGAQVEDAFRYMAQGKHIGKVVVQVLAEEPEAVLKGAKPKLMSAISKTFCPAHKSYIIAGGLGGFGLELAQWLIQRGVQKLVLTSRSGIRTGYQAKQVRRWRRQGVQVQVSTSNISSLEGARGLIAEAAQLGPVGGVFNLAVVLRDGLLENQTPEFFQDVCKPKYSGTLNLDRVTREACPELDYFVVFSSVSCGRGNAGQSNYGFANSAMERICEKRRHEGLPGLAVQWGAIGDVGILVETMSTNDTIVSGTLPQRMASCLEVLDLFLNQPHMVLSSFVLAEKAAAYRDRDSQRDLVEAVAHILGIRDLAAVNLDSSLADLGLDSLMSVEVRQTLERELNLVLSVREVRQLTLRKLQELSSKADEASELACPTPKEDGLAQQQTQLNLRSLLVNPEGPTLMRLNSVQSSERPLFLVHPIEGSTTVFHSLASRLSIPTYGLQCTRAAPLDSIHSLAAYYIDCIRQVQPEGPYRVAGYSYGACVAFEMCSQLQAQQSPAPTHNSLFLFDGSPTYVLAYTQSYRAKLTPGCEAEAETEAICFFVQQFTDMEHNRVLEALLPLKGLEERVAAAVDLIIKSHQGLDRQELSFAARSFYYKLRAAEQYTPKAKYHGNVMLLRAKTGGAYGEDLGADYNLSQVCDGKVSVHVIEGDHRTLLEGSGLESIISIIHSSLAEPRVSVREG

The test addresses T1, recombinant human baculovirus-expressed GST-tagged FASN (Homo sapiens, UniProt P49327).
T1 construct: GST; host or cells: baculovirus expression system (insect cells implied)
Kind of test: FASN enzyme activity assay: fluorescence-based detection of CoA with CPM. Particulars: 5 nM FASN, 150 μM NADPH, 10 μM acetyl-CoA, 25 μM malonyl-CoA, 90 minutes incubation. Type of test: biochemical. The source says: FASN Enzyme activity may be determined by detecting coenzyme A (CoA), a product of FASN-catalyzed synthesis of palmitate from acetyl-CoA and malonyl-CoA with NADPH as a cofactor. The assay is fluorescence-based and measures the interaction of free CoA with 7-diethylamino-3-(4′-malemimidylphenyl)-4-methylcoumarin (CPM; Life Technologies, CA) as described in Chung et al (2008). The coumarin derivative CPM contains a thiol-reactive maleimide that becomes fluorescent upon interaction with the sulfhydryl group of CoA.
For the example compounds described herein, the reaction was performed in 384-well low volume non-binding platews (Corning, NY) using recombinant human baculovirus-expressed GST-tagged FASN. The 20-μL assay mixture contained 50 mM HEPES (pH 7.5), 5 nM FASN, 150 μM NADPH (Sigma, St. Louis, MO), 10 μM acetyl-CoA (Sigma), 25 μM malonyl-CoA (Sigma) and test compound [diluted in dimethyl sulfoxide (DMSO); 0.5% DMSO final in assay after 100 nL addition]. See, Chung et al.; “A fluorescence-based thiol quantification assay for ultra-high-throughput screening for inhibitors of coenzyme A production,” Assay Drug Dev Tech 2008; 6:361-374.
The reaction was initiated by adding malonyl-CoA, followed by incubation for 90 minutes at […]. A stock solution of the CPM reagent was prepared in DMSO al 66 μM and stored at […]. To detect CoA produced in the FASN reaction, the CPM stock was diluted to 50 μM in 70% ethanol and added at 4 μL/well to the assay place. The reaction mixture was then incubated for 30 minutes. Fluorescence was measured using the EnVision™ 2102 multi-label plate reader (PerkinElmer, Waltham, MA) utilizing a general dual mirror, a 390 nm excitation filter and a 530 nm emission filter. Data analysis was performed using ActivityBase (IDBS, Guilford, UK). IC50 values were calculated by plotting the percent inhibition versus log 10 of the concentration of the compound, and fitting to the nonlinear regression sigmoidal dose-response (variable slope) equation in XLFit (IDBS).
For the compound `CCC(=O)N1CCC(F)(C(OCCN2CCOCC2)c2ccc(-c3ccc4cccnc4c3C)cc2)CC1` (stereo not shown) [Example 227, 1-{4-Fluoro-4-[[4-(8-methyl-quinolin-7-yl)-phenyl]-(2-morpholin-4-yl-ethoxy)-methyl]-piperidin-1-yl}-propan-1-one], the half-inhibitory concentration (IC50) was in the range of 1 to 99 nM.

`Cc1c(-c2ccc(CC3CCN(C(=O)C4CC(F)(F)C4)CC3)cc2)cnc2ccccc12` [Example 14, (3,3-Difluorocyclobutyl)-{4-[4-(4-methylquinolin-3-yl)-benzyl]-piperidin-1-yl}-methanone]: the IC50 was in the range of 1000 to 10000 nM. For the compound `Cc1c(-c2ccc(C(F)(F)C3CCN(C(=O)C4CC4)CC3)cc2)cnc2ccccc12` [Example 10, Cyclopropyl-(4-{difluoro-[4-(4-methyl-quinolin-3-yl)-phenyl]-methyl}-piperidin-1-yl)-methanone], the 50% inhibitory concentration (IC50) fell in the range of 100 to 999 nM. For the compound `CC(c1ccc(-c2cnc3ccccc3c2)cc1)C1CCN(C(=O)[C@H]2CCCO2)CC1` (stereo partly drawn) [Example 52, {4-[1-(4-Quinolin-3-yl-phenyl)-ethyl]-piperidin-1-yl}-(R)-tetrahydrofuran-2-yl-methanone], the concentration for half-maximal inhibition (IC50) fell in the range of 1 to 99 nM.

For the compound `COc1c(-c2ccc(CC3CCN(C(=O)[C@H]4CCCO4)CC3)cc2)ccc2cccnc12` [Example 34, {4-[4-(8-Methoxyquinolin-7-yl)-benzyl]-piperidin-1-yl}-(R)-tetrahydrofuran-2-yl-methanone], the concentration for half-maximal inhibition (IC50) is 1 to 99 nM. Next, `CCC(=O)N1CCC(Cc2ccc(-c3cnc4ccccc4c3Cl)cc2)CC1` [Example 19, 1-{4-[4-(4-Chloroquinolin-3-yl)-benzyl]-piperidin-1-yl}-propan-1-one]: 1 to 99 nM; `CCC(=O)N1CCC(C(N)c2ccc(-c3cnc4ccccc4c3)cc2)CC1` (stereo not shown) [Example 43, 1-{4-[amino-(4-quinolin-3-yl-phenyl)-methyl]-piperidin-1-yl}-propan-1-one]: 1000 to 10000 nM. In the case of `CCC(=O)N1CC[C@@H](Cc2ccc(-c3cnc4ccccc4c3)cc2)[C@H](O)C1` (relative stereo) [Example 218, 1-[trans-3-Hydroxy-4-(4-quinolin-3-yl-benzyl)-piperidin-1-yl]-propan-1-one], the IC50 lay within 100 to 999 nM. As for `O=C(c1ccc(-c2cnc3ccccc3c2)cc1)C1CCN(C(=O)[C@H]2CCCO2)CC1` [Example 49, [4-(4-Quinolin-3-yl-benzoyl)-piperidin-1-yl]-(R)-tetrahydrofuran-2-yl-methanone], the concentration for half-maximal inhibition (IC50) fell in the range of 1 to 99 nM.

For the compound `CCC(=O)N1CCC(F)(Cc2ccc(-c3cnc4ccccc4c3)cc2)CC1` [Example 161, 1-(4-fluoro-4-(4-(quinolin-3-yl)benzyl)piperidin-1-yl)propan-1-one], the IC50 lay within 1 to 99 nM.

In the case of `CCC(=O)N1CCC(Cc2ccc(-c3ccc4cccnc4c3Cl)cc2)CC1` [Example 29, 1-{4-[4-(8-Chloroquinolin-7-yl)-benzyl]-piperidin-1-yl}-propan-1-one], the half-maximal inhibitory concentration (IC50) lay within 1 to 99 nM.

For the compound `CCC(=O)N1CCC(Cc2ccc(-c3cnc4ccccc4c3)cc2)CC1` [Example 1, 1-[4-(4-Quinolin-3-yl-benzyl)-piperidin-1-yl]-propan-1-one], the concentration for half-maximal inhibition (IC50) was 1 to 99 nM. Take `CCC(=O)N1CC=C(Cc2ccc(-c3cncc4ccccc34)cc2)CC1` [Example 168, 1-(4-(4-(isoquinolin-4-yl)benzyl)-5,6-dihydropyridin-1(2H)-yl)propan-1-one]: the IC50 lay in the range of 1000 to 10000 nM.

As to `COCCOC(c1ccc(-c2cnc3ccccc3c2C)cc1)C1CCN(C(=O)[C@H]2CCCO2)CC1` (stereo partly drawn) [Example 83, (4-{(2-Methoxyethoxy)-[4-(4-methyl-quinolin-3-yl)-phenyl]-methyl}-piperidin-1-yl)-(R)-tetrahydrofuran-2-yl-methanone], the IC50 lay in the range of 1 to 99 nM.

Consider `CCC(=O)N1CCC(C)(Cc2ccc(-c3cnc4ccccc4c3)cc2)CC1` [Example 59, 1-[4-Methyl-4-(4-quinolin-3-yl-benzyl)-piperidin-1-yl]-propan-1-one], for which the half-inhibitory concentration (IC50) was 100 to 999 nM.

As for `CCC(=O)N1CCC(Cc2ccc(-c3ccc4nccn4c3C)cc2)CC1` [Example 94, 1-{4-[4-(5-Methylimidazo[1,2-a]pyridin-6-yl)-benzyl]-piperidin-1-yl}-propan-1-one], the IC50 was 100 to 999 nM. Take `O=C(C1CC1)N1CCC(F)(Cc2ccc(-c3cncc4ccccc34)cc2)CC1` [Example 177, Cyclopropyl(4-fluoro-4-(4-(isoquinolin-4-yl)benzyl)piperidin-1-yl)methanone]: the IC50 lay within 1 to 99 nM. With `O=C(C1CC(F)(F)C1)N1CCC(Cc2ccc(-c3cnc4ccccc4c3Cl)cc2)CC1` [Example 21, {4-[4-(4-Chloroquinolin-3-yl)-benzyl]-piperidin-1-yl}-(3,3-difluorocyclobutyl)-methanone] the figure was 1000 to 10000 nM; with `CCC(=O)N1CC[C@@H](Cc2ccc(-c3cnc4ccccc4c3)cc2)[C@H](OC)C1` (relative stereo) [Example 219, 1-[(trans)-3-Methoxy-4-(4-quinolin-3-yl-benzyl)-piperidin-1-yl]-propan-1-one], 100 to 999 nM. With `CCC(=O)N1CCC(Cc2ccc(-c3ccc4cccnc4c3OC)cc2)CC1` [Example 32, 1-{4-[4-(8-Methoxyquinolin-7-yl)-benzyl]-piperidin-1-yl}-propan-1-one] the figure was 1 to 99 nM; with `CN(C)Cc1ccc(-c2ccc(C3(C4CCN(C(=O)C5CC5)CC4)OCCO3)cc2)cc1` [Example 137, Cyclopropyl-{4-[2-(4′-dimethylaminomethyl-biphenyl-4-yl)-1,3-dioxolan-2-yl]-piperidin-1-yl}-methanone], 1000 to 10000 nM; with `CC(c1ccc(-c2ccc3cccnc3c2Cl)cc1)C1CCN(C(=O)C2CC2)CC1` (stereo not shown) [Example 73, (4-{1-[4-(8-Chloroquinolin-7-yl)-phenyl]-ethyl}-piperidin-1-yl)-cyclopropylmethanone], 1 to 99 nM.

For `O=C([C@H]1CCCO1)N1CC[C@@H](Cc2ccc(-c3cnc4ccccc4c3)cc2)[C@H](O)C1` [Example 224, [trans-3-Hydroxy-4-(4-quinolin-3-yl-benzyl)-piperidin-1-yl]-(R)-tetrahydrofuran-2-yl-methanone], the half-maximal inhibitory concentration (IC50) lay within 1 to 99 nM. For `O=C(C1CC1)N1CCC(C2(c3ccc(-c4ccc5cccnc5c4)cc3)OCCCO2)CC1` [Example 122, Cyclopropyl-{4-[2-(4-quinolin-7-yl-phenyl)-1,3-dioxinan-2-yl]-piperidin-1-yl}-methanone], the IC50 was 1000 to 10000 nM. For the compound `Cc1nccc2cc(-c3ccc(CC4CCN(C(=O)C5CC5)CC4)cc3)ccc12` [Example 36, Cyclopropyl-{4-[4-(1-methyl-isoquinolin-6-yl)-benzyl]-piperidin-1-yl}-methanone], the IC50 is 1 to 99 nM. Regarding `CCC(=O)N1CCC(F)(Cc2ccc(-c3cnc4ccccc4c3C)cc2)CC1` [Example 195, 1-(4-Fluoro-4-(4-(4-methylquinolin-3-yl)benzyl)piperidin-1-yl)propan-1-one], the half-inhibitory concentration (IC50) fell in the range of 1 to 99 nM. Take `O=C([C@H]1CCCO1)N1CCC(F)(Cc2ccc(-c3ccc4cccnc4c3)cc2)CC1` [Example 187, (R)-(4-fluoro-4-(4-(quinolin-7-yl)benzyl)piperidin-1-yl)(tetrahydrofuran-2-yl)methanone]: the IC50 is 1 to 99 nM. For `Cc1c(-c2ccc(C3(C4CCN(C(=O)[C@H]5CCCO5)CC4)CC3)cc2)ccc2cccnc12` [Example 79, (4-{1-[4-(8-Methylquinolin-7-yl)-phenyl]-cyclopropyl}-piperidin-1-yl)-(R)-tetrahydrofuran-2-yl-methanone], the 50% inhibitory concentration (IC50) lay in the range of 1000 to 10000 nM.

Usually IC50 stands for the concentration at which inhibition is half-maximal.
